Test results as given in patent publication US11331337B2, “Heparin and heparan sulphate oligosaccharides” (Agency for Science, Technology and Research, priority 2017, dated 2022).

Legend:
C2C12 cells = experiment: Alkaline phosphatase (ALP) activity assay in C2C12 cells; format: cell-based, murine; conditions: with BMP-2 100 ng/mL, 5 μg/mL, 3 days
Method: C2C12 cells were maintained as described above and seeded at 2×10^4 cells/cm2 in tissue culture treated 24-well plates. The cells were cultured in treatment media for 3 days, after which total protein was extracted and ALP activity was determined. Briefly, cells were washed with PBS and total protein extracted with RIPA buffer containing a protease inhibitor cocktail. Total protein concentration was determined using the BCA assay, then 7.5 μg of total protein per condition was combined with p-nitrophenylphosphate (Thermo-Fisher). […] Data represents mean±S.D. of three independent experiments.

BMP-2 = target: T1, BMP-2 (Homo sapiens, UniProt P12643); experiment: Surface plasmon resonance BMP-2 competitive binding assay; conditions: 10 μg/mL pre-incubated with BMP-2 25 nM, applied to heparin-coated SPR chip
T1 construct: purchased R&D Systems Inc. (U.S.A.)
T1 sequence (P12643 283-396): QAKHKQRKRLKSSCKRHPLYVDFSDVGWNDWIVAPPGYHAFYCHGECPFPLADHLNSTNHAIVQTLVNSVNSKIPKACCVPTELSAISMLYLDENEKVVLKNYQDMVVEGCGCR
Method: Briefly, 20 mg heparin was biotinylated at free amine groups using 8.6 μM NHS-biotin in dimethyl sulfoxide, after which excess unreacted NHS-biotin was removed by passing the sample through two 7 kDa molecular weight cut-off Zeba spin desalting columns. […] Heparin oligosaccharides were used at a concentration of 10 μg/mL in HBS-EP 0.1% buffer (HBS-EP with 0.1% (v/v) Tween-20). […] The response was measured as a function of time at 25° C. R.U.s for the heparin surface were determined by subtracting the R.U. of the control (uncoated) flow channel from those of the heparin-biotin-coated flow channel. Representative sensorgrams from all competitive binding experiments may be found in supplementary information (FIG. 1). […] Data constitutes the mean±S.D. of three independent experiments.

percentage of BMP-2 sequestered in solution (reduction in response units vs. BMP-2 alone) (BMP-2): able to bind BMP-2 with high affinity
Substance: dextran sulfate
BMP-2-induced ALP activity (C2C12 cells): inhibited BMP-2 bioactivity in vitro
